Measured values from the supplement of paper PMC4862054.

Columns and labels:
Test in all cases: normalised viability (% of control), CellTiter-Blue; higher = more viable cells (about 100 = DMSO control)
Conditions in all cases: incubation time: 72 h
[1] = tested on: SK-BR-3
Procedure, shortened: (§1)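 Plates were quality-checked by Z'-factor and normalised to vehicle (100) and a positive kill control (0). The underlying assay incubated breast cancer cell lines for 72 h on 384-well plates with compound, then added 2.5 µl CellTiter-Blue for 2 h at 37 °C and read at 560/590 nm. The value is normalised viability at a single listed concentration of the series.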

[2] = tested on: HCC1937
Procedure, shortened: as §1

[3] = tested on: MFM-223
Procedure, shortened: as §1

[4] = tested on: MDA-MB-436
Procedure, shortened: as §1

[5] = tested on: MDA-MB-453
Procedure, shortened: as §1

[6] = tested on: HDQ-P1
Procedure, shortened: as §1

Row | Structure (SMILES) | normalised viability ([1]; 10 nM) [%] | normalised viability ([1]; 1000 nM) [%] | normalised viability ([1]; 10000 nM) [%] | normalised viability ([2]; 10 nM) [%] | normalised viability ([2]; 1000 nM) [%] | normalised viability ([2]; 10000 nM) [%] | normalised viability ([3]; 10 nM) [%] | normalised viability ([3]; 1000 nM) [%] | normalised viability ([3]; 10000 nM) [%] | normalised viability ([4]; 10 nM) [%] | normalised viability ([4]; 1000 nM) [%] | normalised viability ([4]; 10000 nM) [%] | normalised viability ([5]; 3 nM) [%] | normalised viability ([5]; 30 nM) [%] | normalised viability ([5]; 100 nM) [%] | normalised viability ([6]; 3 nM) [%] | normalised viability ([6]; 30 nM) [%] | normalised viability ([6]; 100 nM) [%] | normalised viability ([1]; 1 nM) [%] | normalised viability ([1]; 100 nM) [%] | normalised viability ([2]; 1 nM) [%] | normalised viability ([2]; 100 nM) [%] | normalised viability ([3]; 1 nM) [%] | normalised viability ([3]; 100 nM) [%] | normalised viability ([4]; 1 nM) [%] | normalised viability ([4]; 100 nM) [%] | normalised viability ([5]; 0.3 nM) [%] | normalised viability ([5]; 10 nM) [%] | normalised viability ([6]; 0.3 nM) [%] | normalised viability ([6]; 10 nM) [%]
1 | Cc1ccc(-n2nc(C(C)(C)C)cc2NC(=O)Nc2ccc(OCCN3CCOCC3)c3ccccc23)cc1 [Doramapimod] | 91.1 | 98.2 | 97.1 | 45.3 | 90.2 | 97.9 | 103 | 92.8 | 81.5 | 84.4 | 33.9 | 71.5 | 109 | 105 | 106 | 88.8 | 78 | 82.4 |  |  |  |  |  |  |  |  |  |  |  | 
2 | Cn1c(Nc2ccc(C(F)(F)F)cc2)nc2cc(Oc3ccnc(-c4ncc(C(F)(F)F)[nH]4)c3)ccc21 [RAF265] |  | 106 |  |  | 62 |  |  | 43.8 |  |  | 83.6 |  | 109 |  |  | 94.6 |  |  | 96.2 | 96.3 | 103 | 78.7 | 94.9 | 74.7 | 120 | 79.6 | 99.2 | 98.3 | 95.3 | 79.7
3 | COc1cc([C@@H]2c3cc4c(cc3[C@@H](O[C@@H]3O[C@@H]5CO[C@@H](C)O[C@H]5[C@H](O)[C@H]3O)[C@H]3COC(=O)[C@H]23)OCO4)cc(OC)c1O [Etoposide] | 98.2 | 46.5 | 12.9 | 78.5 | 64.9 | 38.9 | 99.2 | 107 | 81.6 | 99.8 | 84.1 | 55.2 | 109 | 107 | 99.8 | 90.8 | 91 | 33.6 |  |  |  |  |  |  |  |  |  |  |  | 
4 | CN(N=O)C(=O)N[C@@H](C=O)[C@@H](O)[C@H](O)[C@H](O)CO [Streptozocin] | 101 | 110 | 126 | 87.4 | 63.3 | 75.9 | 93.1 | 93 | 86.8 | 110 | 88.1 | 90.6 | 116 | 89.4 | 93 | 103 | 109 | 111 |  |  |  |  |  |  |  |  |  |  |  | 
5 | Cc1ccc(C(=O)N(CCCN)[C@@H](c2oc3cc(Cl)ccc3c(=O)c2Cc2ccccc2)C(C)C)cc1 |  | 18.2 |  |  | 22.3 |  |  | 40.6 |  |  | 59.2 |  | 103 |  |  | 75.8 |  |  | 45 | 20.8 | 51.2 | 26.6 | 105 | 43.4 | 97.8 | 60.6 | 123 | 23.8 | 128 | 59.1
6 | CCC1=C[C@@H]2CN(C1)Cc1c([nH]c3ccccc13)[C@@](C(=O)OC)(c1cc3c(cc1OC)N(C)[C@H]1[C@@](O)(C(=O)OC)[C@H](OC(C)=O)[C@]4(CC)C=CCN5CC[C@]31[C@@H]54)C2 [Vinorelbine] | 99.4 | 17.7 | 18.3 | 83.2 | 14.7 | 19.5 | 95.5 | 44 | 29.1 | 109 | 41.4 | 34.6 | 110 | 43 | 25.1 | 95.3 | 81.2 | 65 |  |  |  |  |  |  |  |  |  |  |  | 
